Results from patent US10301261B2, “Substituted indoles as modulators of ROR-gamma” (Vitae Pharmaceuticals, LLC, priority 2015, dated 2019).

Tests used:
[1] = target: recombinant RORγ Ligand Binding Domain (LBD) protein (Homo sapiens (Human), UniProt P51449); assay: Radio-Ligand RORγ Binding Assay (Assay 1); details: radio-ligand 25-hydroxy [26,27-3H]-cholesterol competition
Description: Radio-Ligand RORγ Binding Assay (Assay 1)
Compounds described herein were tested for ability to bind to RORγ in a cell-free competition assay with commercially available radio-ligand (RL), 25-hydroxy [26,27-^3H]-cholesterol (PerkinElmer, Cat. # NET674250UC), for a ligand binding site on a recombinant RORγ Ligand Binding Domain (LBD) protein expressed as a 6×His-Glutathione-S-Transferase (GST) fusion. […] The plate was shaken at 700 rpm for 20 min and incubated for 10 min at rt, after which 40 μL of poly-Lys YSi SPA beads (PerkinElmer, Cat. # RPNQ0010) were added to achieve 50 μg of the beads per well. The plate was incubated on an orbital shaker for 20 min and then for 10 min without agitation at rt. SPA signal for tritium beta radiation was registered on PerkinElmer Microbeta plate reader. […] The percent inhibition vs. concentration data were fit into a four-parameter model, and IC50 values were calculated from the fit as the concentrations corresponding to the inflection points on the dose-response curves. […]

[2] = target: full-length RORγt in Jurkat cells (Homo sapiens (Human), UniProt P51449); assay: RORγt 5×RORE Assay in Jurkat Cells (Assay 2); type: cell-based; details: RORγt 5×RORE Nanoluc reporter
Sequence of full-length RORγt in Jurkat cells (P51449 other isoform, or with tags, fused parts or gaps): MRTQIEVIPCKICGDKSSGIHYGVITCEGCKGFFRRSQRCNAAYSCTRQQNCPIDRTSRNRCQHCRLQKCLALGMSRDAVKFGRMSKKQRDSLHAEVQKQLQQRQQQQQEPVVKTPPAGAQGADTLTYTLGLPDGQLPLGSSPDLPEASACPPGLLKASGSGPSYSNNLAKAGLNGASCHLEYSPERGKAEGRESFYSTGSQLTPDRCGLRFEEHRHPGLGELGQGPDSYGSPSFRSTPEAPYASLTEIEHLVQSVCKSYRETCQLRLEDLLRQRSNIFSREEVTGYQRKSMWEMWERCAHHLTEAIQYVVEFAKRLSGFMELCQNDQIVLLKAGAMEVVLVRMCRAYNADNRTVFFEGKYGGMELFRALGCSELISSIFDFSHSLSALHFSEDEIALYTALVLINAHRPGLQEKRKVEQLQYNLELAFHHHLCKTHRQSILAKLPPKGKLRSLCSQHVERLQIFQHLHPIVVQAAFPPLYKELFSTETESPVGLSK
Description: [formula] RORγt 5×RORE Assay in Jurkat Cells (Assay 2)
Compounds described herein were tested for RORγ inverse agonist activity in a cell-based, transcriptional activity assay. […] (Promega, Cat. # N1021) using KpnI and HindIII restriction sites. […] Tested compounds were added to the cells in the same media (final concentration of DMSO was 0.1% (v/v)), and the plates were incubated at 37° C./5% CO2 for 16-18 hrs. Luciferase activity in the conditioned supernatants was determined with NanoGlo® assay reagents (Promega, Cat.# N1130).

Sequence of recombinant RORγ Ligand Binding Domain (LBD) protein (P51449 269-508): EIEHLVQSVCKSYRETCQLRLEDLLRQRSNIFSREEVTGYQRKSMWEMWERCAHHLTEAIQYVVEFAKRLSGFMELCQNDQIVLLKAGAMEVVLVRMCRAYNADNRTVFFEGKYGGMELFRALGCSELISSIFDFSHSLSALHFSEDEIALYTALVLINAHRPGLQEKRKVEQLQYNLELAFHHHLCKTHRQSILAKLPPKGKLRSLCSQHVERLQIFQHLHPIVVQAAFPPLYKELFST

Molecule	Ki [1] [nM]	IC50 [2] [nM]
CCS(=O)(=O)c1ccc(CNC(=O)c2ccc3c(c2)nc(C[C@H]2CC[C@@H](OC)CC2)n3C2CC2)cc1 [BE-46.2, 1-cyclopropyl-N-(4-(ethylsulfonyl)benzyl)-2-(((1s,4s)-4-methoxycyclohexyl)methyl)-1H-benzo[d]imidazole-5-carboxamide]	< 100	> 1000
CCS(=O)(=O)c1ccc(CNC(=O)c2ccc3c(c2)nc(C[C@H]2CC[C@@H](C(F)(F)F)CC2)n3C2CC2)cc1 [BE-18.2, 1-cyclopropyl-N-(4-(ethylsulfonyl)benzyl)-2-((cis-4-(trifluoromethyl)cyclohexyl)methyl)-1H-benzo[d]imidazole-5-carboxamide]	< 100	> 1000
CCS(=O)(=O)c1ccc([C@H](CO)NC(=O)c2ccc3c(c2)nc(C[C@H]2CC[C@H](C(F)(F)F)CC2)n3C2CC2)nc1 [BE-28, 1-cyclopropyl-N-((R)-1-(5-(ethylsulfonyl)pyridin-2-yl)-2-hydroxyethyl)-2-(((1r,4R)-4-(trifluoromethyl)cyclohexyl)methyl)-1H-benzo[d]imidazole-5-carboxamide]	< 100	< 100
CCn1c(C[C@H]2CC[C@H](C(F)(F)F)CC2)cc2cc(C(=O)N[C@@H](CO)c3ccc(S(=O)(=O)CC)cc3)ccc21 [IN-16.1, 1-ethyl-N-((R)-1-(4-(ethylsulfonyl)phenyl)-2-hydroxyethyl)-2-(((1r,4R)-4-(trifluoromethyl)cyclohexyl)methyl)-1H-indole-5-carboxamide]	< 100	< 100
CCS(=O)(=O)c1ccc(CNC(=O)c2cnc3c(c2)nc(C[C@H]2CC[C@H](C(F)(F)F)CC2)n3C2CC2)cc1 [AB-1.1, 3-cyclopropyl-N-(4-(ethylsulfonyl)benzyl)-2-(((1r,4r)-4-(trifluoromethyl)cyclohexyl)methyl)-3H-imidazo[4,5-b]pyridine-6-carboxamide]	< 100	< 100
1-ethyl-N-((R)-1-(4-(ethylsulfonyl)phenyl)-2-hydroxyethyl)-2-(((1s,4S)-4-(trifluoromethyl)cyclohexyl)methyl)-1H-indole-5-carboxamide [IN-16.2]	< 100	> 1000
CCS(=O)(=O)c1ccc(CNC(=O)c2ccc3c(c2)nc(C[C@H]2CC[C@H](OC)CC2)n3C2CC2)cc1 [BE-46.1, 1-cyclopropyl-N-(4-(ethylsulfonyl)benzyl)-2-(((1r,4r)-4-methoxycyclohexyl)methyl)-1H-benzo[d]imidazole-5-carboxamide]	< 100	100 to 1000
CCS(=O)(=O)c1ccc(CNC(=O)c2ccc3c(c2)nc(C[C@H]2CC[C@@H](C(F)(F)F)CC2)n3CC(C)C)cc1 [BE-19.2, N-(4-(ethylsulfonyl)benzyl)-1-isobutyl-2-(((1s,4s)-4-(trifluoromethyl)cyclohexyl)methyl)-1H-benzo[d]imidazole-5-carboxamide]	< 100	> 1000
CCS(=O)(=O)c1ccc(CNC(=O)c2ccc3c(c2)nc(C[C@H]2CC[C@H](C(F)(F)F)CC2)n3CC(C)C)cc1 [BE-19.1, N-(4-(ethylsulfonyl)benzyl)-1-isobutyl-2-(((1r,4r)-4-(trifluoromethyl)cyclohexyl)methyl)-1H-benzo[d]imidazole-5-carboxamide]	< 100	< 100
CCS(=O)(=O)c1ccc(CNC(=O)c2ccc3c(c2)nc(O[C@H]2CC[C@H](C(F)(F)F)CC2)n3CC(C)C)cc1 [BE-4.1, N-(4-(ethylsulfonyl)benzyl)-1-isobutyl-2-(((1r,4r)-4-(trifluoromethyl)cyclohexyl)oxy)-1H-benzo[d]imidazole-5-carboxamide]	< 100	100 to 1000
CCn1c(C[C@H]2CC[C@H](C(F)(F)F)CC2)cc2cc(C(=O)NCc3ccc(S(=O)(=O)CC)cc3)ccc21 [IN-17.1, 1-ethyl-N-(4-(ethylsulfonyl)benzyl)-2-(((1r,4r)-4-(trifluoromethyl)cyclohexyl)methyl)-1H-indole-5-carboxamide]	< 100	< 100
CCS(=O)(=O)c1ccc(CNC(=O)c2ccc3c(c2)nc(C[C@H]2CC[C@H](C(F)(F)F)CC2)n3CC(C)C)nc1 [BE-26.1, N-((5-(ethylsulfonyl)pyridin-2-yl)methyl)-1-isobutyl-2-(((1r,4r)-4-(trifluoromethyl)cyclohexyl)methyl)-1H-benzo[d]imidazole-5-carboxamide]	< 100	> 1000

The remaining lines, values ahead:

Ki [1] [nM]	IC50 [2] [nM]	Molecule
< 100	< 100	CCn1c(Cc2ccc(C(F)(F)F)cc2)cc2cc(C(=O)N[C@@H](CO)c3ccc(S(=O)(=O)CC)cc3)ccc21 [IN-3, (R)-1-ethyl-N-(1-(4-(ethylsulfonyl)phenyl)-2-hydroxyethyl)-2-(4-(trifluoromethyl)benzyl)-1H-indole-5-carboxamide]
< 100	< 100	CCS(=O)(=O)c1ccc(CNC(=O)c2ccc3c(c2)nc(Cc2ccc(OC(F)F)cc2)n3C2CC2)cc1 [BE-48, 1-cyclopropyl-2-(4-(difluoromethoxy)benzyl)-N-(4-(ethylsulfonyl)benzyl)-1H-benzo[d]imidazole-5-carboxamide]
< 100	> 1000	CCn1c(OCC2CC2)nc2cc(C(=O)N[C@@H](CO)c3ccc(S(=O)(=O)CC)cc3)ccc21 [BE-17, (R)-2-(cyclopropylmethoxy)-1-ethyl-N-(1-(4-(ethylsulfonyl)phenyl)-2-hydroxyethyl)-1H-benzo[d]imidazole-5-carboxamide]
< 100	< 100	CCS(=O)(=O)c1ccc(CNC(=O)c2ccc3c(c2)nc(Cc2ccc(C(F)(F)F)cc2)n3CC(F)(F)F)cc1 [BE-37, N-(4-(ethylsulfonyl)benzyl)-1-(2,2,2-trifluoroethyl)-2-(4-(trifluoromethyl)benzyl)-1H-benzo[d]imidazole-5-carboxamide]
< 100	< 100	CCS(=O)(=O)c1ccc([C@H](CO)NC(=O)c2ccc3c(c2)cc(CN2CCC(C(F)(F)F)CC2)n3C2CC2)cc1 [IN-13, (R)-1-cyclopropyl-N-(1-(4-(ethylsulfonyl)phenyl)-2-hydroxyethyl)-2-((4-(trifluoromethyl)piperidin-1-yl)methyl)-1H-indole-5-carboxamide]
< 100	< 100	CCn1c(Cc2ccc(C(F)(F)F)cc2)cc2cc(C(=O)NCc3ccc(S(=O)(=O)CC)cc3)ccc21 [IN-1, 1-ethyl-N-(4-(ethylsulfonyl)benzyl)-2-(4-(trifluoromethyl)benzyl)-1H-indole-5-carboxamide]
< 100	< 100	CCn1c(Oc2ccc(C(F)(F)F)cc2)nc2cc(C(=O)NCc3ccc(S(=O)(=O)CC)cc3)ccc21 [BE-5, 1-ethyl-N-(4-(ethylsulfonyl)benzyl)-2-(4-(trifluoromethyl)phenoxy)-1H-benzo[d]imidazole-5-carboxamide]
< 100	< 100	CCn1c(C(=O)c2ccc(C(F)(F)F)cn2)cc2cc(C(=O)N[C@@H](CO)c3ccc(S(=O)(=O)CC)cc3)ccc21 [IN-22, (R)-1-ethyl-N-(1-(4-(ethylsulfonyl)phenyl)-2-hydroxyethyl)-2-(5-(trifluoromethyl)picolinoyl)-1H-indole-5-carboxamide]
< 100	< 100	CCS(=O)(=O)c1ccc(CNC(=O)c2ccc3c(c2)nc(C(=O)c2ccc(C(F)(F)F)cc2)n3C2CC2)cc1 [BE-65, 1-cyclopropyl-N-(4-(ethylsulfonyl)benzyl)-2-(4-(trifluoromethyl)benzoyl)-1H-benzo[d]imidazole-5-carboxamide]
< 100	< 100	CCn1c(Oc2ccc(C(F)(F)F)cc2)nc2cc(C(=O)N[C@@H](CO)c3ccc(S(=O)(=O)CC)cc3)ccc21 [BE-8, (R)-1-ethyl-N-(1-(4-(ethylsulfonyl)phenyl)-2-hydroxyethyl)-2-(4-(trifluoromethyl)phenoxy)-1H-benzo[d]imidazole-5-carboxamide]
< 100	< 100	CCS(=O)(=O)c1ccc(CNC(=O)c2ccc3c(c2)nc(CN2CCC(C(F)(F)F)CC2)n3CC(C)C)cc1 [BE-53, N-(4-(ethylsulfonyl)benzyl)-1-isobutyl-2-((4-(trifluoromethyl)piperidin-1-yl)methyl)-1H-benzo[d]imidazole-5-carboxamide]
< 100	100 to 1000	CCn1c(Cc2ccc(Cl)cc2)cc2cc(C(=O)N[C@@H](CO)c3ccc(S(=O)(=O)CC)cn3)ccc21 [IN-8, (R)-2-(4-chlorobenzyl)-1-ethyl-N-(1-(5-(ethylsulfonyl)pyridin-2-yl)-2-hydroxyethyl)-1H-indole-5-carboxamide]
< 100	< 100	CCS(=O)(=O)c1ccc([C@H](CO)NC(=O)c2ccc3c(c2)nc(OCc2ccc(C(F)(F)F)cc2)n3C2CC2)cc1 [BE-15, (R)-1-cyclopropyl-N-(1-(4-(ethylsulfonyl)phenyl)-2-hydroxyethyl)-2-((4-(trifluoromethyl)benzyl)oxy)-1H-benzo[d]imidazole-5-carboxamide]
